Experimental data published in ChEMBL document CHEMBL1201862, “PubChem BioAssay data set” (2004).
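Cells were grown in 96-well plates and exposed to each compound for 48 hours at five concentrations; endpoints were interpolated linearly between bracketing concentrations, or set to the highest concentration if not reached. Here, GI50 denotes the concentration required for 50% inhibition of growth.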 The source made the active and inactive calls. No stated cut-off is given here; in the data, active = GI50 up to about 1.1 µM and inactive = higher.

How the values were obtained:
Test in all cases: growth of human tumour cells (NCI), 48 h
U-251 = tested on: U-251
786-0 = tested on: 786-0
SN12C = tested on: SN12C
SF-268 = tested on: SF-268
LOX IMVI = tested on: LOX IMVI
NCI/ADR-RES = tested on: NCI/ADR-RES
A549 = tested on: A549
MDA-MB-435 = tested on: MDA-MB-435
RXF 393 = tested on: RXF 393
SK-MEL-28 = tested on: SK-MEL-28
K562 = tested on: K562
SW-620 = tested on: SW-620
HCC 2998 = tested on: HCC 2998
RPMI-8226 = tested on: RPMI-8226
BT-549 = tested on: BT-549
HOP-62 = tested on: HOP-62
NCI-H460 = tested on: NCI-H460
OVCAR-5 = tested on: OVCAR-5
SR = tested on: SR
SK-MEL-5 = tested on: SK-MEL-5
SF-295 = tested on: SF-295
DU-145 = tested on: DU-145
MCF7 = tested on: MCF7
KM12 = tested on: KM12
NCI-H226 = tested on: NCI-H226
HCT-116 = tested on: HCT-116
HCT-15 = tested on: HCT-15
OVCAR-3 = tested on: OVCAR-3
COLO 205 = tested on: COLO 205
SNB-19 = tested on: SNB-19
HL-60 = tested on: HL-60
UO-31 = tested on: UO-31
CAKI-1 = tested on: CAKI-1
MDA-N = tested on: MDA-N
HT-29 = tested on: HT-29
OVCAR-8 = tested on: OVCAR-8
EKVX = tested on: EKVX
IGROV-1 = tested on: IGROV-1
TK-10 = tested on: TK-10
SK-MEL-2 = tested on: SK-MEL-2
PC-3 = tested on: PC-3
HOP-92 = tested on: HOP-92
T47D = tested on: T47D
NCI-H23 = tested on: NCI-H23
Hs-578T = tested on: Hs-578T
A498 = tested on: A498
ACHN = tested on: ACHN
M14 = tested on: M14
NCI-H522 = tested on: NCI-H522
UACC-257 = tested on: UACC-257
UACC-62 = tested on: UACC-62
Malme-3M = tested on: Malme-3M
MDA-MB-231 = tested on: MDA-MB-231
CCRF-CEM = tested on: CCRF-CEM
SNB-75 = tested on: SNB-75
MOLT-4 = tested on: MOLT-4
OVCAR-4 = tested on: OVCAR-4
SK-OV-3 = tested on: SK-OV-3

With `Clc1ccc(OCc2nnc(COc3ccc(OCc4nnc(COc5ccc(Cl)cc5Cl)o4)c(Cl)c3)o2)c(Cl)c1` the GI50 (U-251) was 23 µM (inactive), the GI50 (786-0) was 30.8 µM (inactive) and the GI50 (SN12C) was 40.3 µM (inactive). For the same molecule, the GI50 (SF-268) was 23.5 µM (inactive), the GI50 (LOX IMVI) was 17.3 µM (inactive) and the GI50 (NCI/ADR-RES) was 24.5 µM (inactive). For the same molecule, the GI50 (A549) was 32 µM (inactive), the GI50 (MDA-MB-435) was 42.7 µM (inactive) and the GI50 (RXF 393) was 20.1 µM (inactive). The GI50 (SK-MEL-28) was 46.5 µM (inactive), the GI50 (K562) was 24.3 µM (inactive) and the GI50 (SW-620) was 70.1 µM (inactive). For the same molecule, the GI50 (HCC 2998) was 28.7 µM (inactive), the GI50 (RPMI-8226) was 17.3 µM (inactive) and the GI50 (BT-549) was 69.2 µM (inactive). For the same molecule, the GI50 (HOP-62) was 51.6 µM (inactive), the GI50 (NCI-H460) was 72.4 µM (inactive) and the GI50 (OVCAR-5) was 36.2 µM (inactive). The GI50 (SR) was 20.9 µM (inactive), the GI50 (SK-MEL-5) was 41.1 µM (inactive) and the GI50 (SF-295) was 33.3 µM (inactive). The GI50 (DU-145) was 71.3 µM (inactive), the GI50 (MCF7) was 32.1 µM (inactive) and the GI50 (KM12) was 45.7 µM (inactive). The GI50 (NCI-H226) was 36.2 µM (inactive), the GI50 (HCT-116) was 44.1 µM (inactive) and the GI50 (HCT-15) was 89.7 µM. For the same molecule, the GI50 (OVCAR-3) was 25.2 µM (inactive), the GI50 (COLO 205) was 24.4 µM (inactive) and the GI50 (SNB-19) was 68.4 µM (inactive). The GI50 (HL-60) was 23.1 µM (inactive), the GI50 (UO-31) was 17.9 µM (inactive) and the GI50 (CAKI-1) was 24.8 µM (inactive). The GI50 (MDA-N) was 47.3 µM (inactive), the GI50 (HT-29) was 27.4 µM (inactive) and the GI50 (OVCAR-8) was 41.4 µM (inactive). For the same molecule, the GI50 (EKVX) was 13.6 µM (inactive), the GI50 (IGROV-1) was 17.7 µM (inactive) and the GI50 (TK-10) was 76 µM (inactive). For the same molecule, the GI50 (SK-MEL-2) was 33.8 µM (inactive), the GI50 (PC-3) was 29.9 µM (inactive) and the GI50 (HOP-92) was 7.48 µM (inactive). The GI50 (T47D) was 78.3 µM (inactive), the GI50 (NCI-H23) was 48.1 µM (inactive) and the GI50 (Hs-578T) was 42.5 µM (inactive). For the same molecule, the GI50 (A498) was 48.3 µM (inactive), the GI50 (ACHN) was 40.6 µM (inactive) and the GI50 (M14) was 76.4 µM (inactive). The GI50 (NCI-H522) was 18.1 µM (inactive), the GI50 (UACC-257) was > 100 µM (inactive) and the GI50 (UACC-62) was 40.5 µM (inactive). The GI50 (Malme-3M) was 37.6 µM (inactive), the GI50 (MDA-MB-231) was 21.7 µM (inactive) and the GI50 (CCRF-CEM) was 17.5 µM (inactive).

`CCOC(=O)c1sc2nc(SC)nc3c2c1N=CN3c1ccc(Br)cc1` was tested, and the GI50 (U-251) was 76.2 µM (inactive), the GI50 (786-0) was 40.1 µM (inactive) and the GI50 (SN12C) was > 100 µM (inactive). The GI50 (LOX IMVI) was > 100 µM (inactive), the GI50 (NCI/ADR-RES) was > 100 µM (inactive) and the GI50 (A549) was > 100 µM (inactive). The GI50 (MDA-MB-435) was > 100 µM (inactive), the GI50 (RXF 393) was 25.4 µM (inactive) and the GI50 (SK-MEL-28) was > 100 µM (inactive). The GI50 (K562) was > 100 µM (inactive), the GI50 (SW-620) was > 100 µM (inactive) and the GI50 (HCC 2998) was > 100 µM (inactive). The GI50 (RPMI-8226) was > 100 µM (inactive), the GI50 (BT-549) was > 100 µM (inactive) and the GI50 (HOP-62) was 21.7 µM (inactive). For the same molecule, the GI50 (NCI-H460) was > 100 µM (inactive), the GI50 (OVCAR-5) was > 100 µM (inactive) and the GI50 (SR) was > 100 µM (inactive). The GI50 (SK-MEL-5) was > 100 µM (inactive), the GI50 (SNB-75) was 38.2 µM (inactive) and the GI50 (SF-295) was > 100 µM (inactive). For the same molecule, the GI50 (DU-145) was > 100 µM (inactive), the GI50 (MCF7) was > 100 µM (inactive) and the GI50 (KM12) was > 100 µM (inactive). The GI50 (NCI-H226) was > 100 µM (inactive), the GI50 (HCT-116) was > 100 µM (inactive) and the GI50 (HCT-15) was > 100 µM. The GI50 (OVCAR-3) was 24.8 µM (inactive), the GI50 (COLO 205) was > 100 µM (inactive) and the GI50 (SNB-19) was > 100 µM (inactive). For the same molecule, the GI50 (MOLT-4) was > 100 µM (inactive), the GI50 (HL-60) was > 100 µM (inactive) and the GI50 (UO-31) was > 100 µM (inactive). For the same molecule, the GI50 (CAKI-1) was 98.9 µM (inactive), the GI50 (MDA-N) was > 100 µM (inactive) and the GI50 (HT-29) was > 100 µM (inactive). The GI50 (OVCAR-8) was > 100 µM (inactive), the GI50 (EKVX) was > 100 µM (inactive) and the GI50 (IGROV-1) was > 100 µM (inactive). For the same molecule, the GI50 (TK-10) was > 100 µM (inactive), the GI50 (SK-MEL-2) was > 100 µM (inactive) and the GI50 (PC-3) was > 100 µM (inactive). The GI50 (HOP-92) was > 100 µM (inactive), the GI50 (T47D) was > 100 µM (inactive) and the GI50 (NCI-H23) was > 100 µM (inactive). The GI50 (OVCAR-4) was > 100 µM (inactive), the GI50 (Hs-578T) was 23.1 µM (inactive) and the GI50 (A498) was 25.2 µM (inactive). For the same molecule, the GI50 (ACHN) was > 100 µM (inactive), the GI50 (SK-OV-3) was > 100 µM (inactive) and the GI50 (M14) was > 100 µM (inactive). For the same molecule, the GI50 (NCI-H522) was > 100 µM (inactive), the GI50 (UACC-257) was > 100 µM (inactive) and the GI50 (UACC-62) was > 100 µM (inactive). The GI50 (Malme-3M) was > 100 µM (inactive), the GI50 (MDA-MB-231) was > 100 µM (inactive) and the GI50 (CCRF-CEM) was > 100 µM (inactive).
